Tests used:
Cannabinoid receptor 1 [1] = molecular target: T1, Cannabinoid receptor 1 (Homo sapiens, UniProt P21554); assay: Displacement of [3H]CP55940 from human CB1R in HEK293 cell membranes after 60 mins liquid scintillation analysis
Cannabinoid receptor 1 [2] = molecular target: T1, Cannabinoid receptor 1; assay: Displacement of [3H]CP55940 from human CB1R in HEK293 cell membranes at 10 uM after 60 mins liquid scintillation analysis relative to control
D(2) dopamine receptor = D(2) dopamine receptor (Homo sapiens, UniProt P14416); assay: Binding affinity to human D2R
Sequence of D(2) dopamine receptor (P14416 whole entry): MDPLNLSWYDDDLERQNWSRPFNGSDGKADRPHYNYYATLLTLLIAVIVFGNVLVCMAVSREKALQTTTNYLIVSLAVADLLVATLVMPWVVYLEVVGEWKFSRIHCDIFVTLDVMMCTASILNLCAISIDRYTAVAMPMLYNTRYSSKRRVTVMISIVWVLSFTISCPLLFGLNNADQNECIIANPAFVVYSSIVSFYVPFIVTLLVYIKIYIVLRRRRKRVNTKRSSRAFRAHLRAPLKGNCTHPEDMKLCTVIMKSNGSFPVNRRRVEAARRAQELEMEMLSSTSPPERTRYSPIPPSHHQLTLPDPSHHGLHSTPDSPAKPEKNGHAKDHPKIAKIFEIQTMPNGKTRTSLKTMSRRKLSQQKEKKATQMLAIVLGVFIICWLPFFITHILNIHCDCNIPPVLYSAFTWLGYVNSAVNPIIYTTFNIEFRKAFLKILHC

T1 sequence (P21554 whole entry): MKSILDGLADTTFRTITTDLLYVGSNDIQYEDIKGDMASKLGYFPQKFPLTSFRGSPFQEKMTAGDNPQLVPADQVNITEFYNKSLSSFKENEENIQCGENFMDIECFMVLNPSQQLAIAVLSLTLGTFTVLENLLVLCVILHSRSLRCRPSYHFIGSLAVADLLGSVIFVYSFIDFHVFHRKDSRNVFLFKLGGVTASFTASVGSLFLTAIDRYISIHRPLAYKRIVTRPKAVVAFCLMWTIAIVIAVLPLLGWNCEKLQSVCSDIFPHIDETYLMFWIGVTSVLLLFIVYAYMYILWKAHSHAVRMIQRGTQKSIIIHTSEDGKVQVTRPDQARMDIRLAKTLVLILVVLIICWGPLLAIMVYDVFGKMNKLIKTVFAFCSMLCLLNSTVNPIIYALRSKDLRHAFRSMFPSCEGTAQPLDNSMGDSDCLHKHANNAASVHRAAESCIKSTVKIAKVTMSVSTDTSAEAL

Compound: Cc1c(C(=O)NN2CCCCC2)nn(-c2ccc(Cl)cc2Cl)c1-c1ccc(C#CCCOC(=O)CCCCCCCCCCNC(=S)Nc2ccc3c(c2)C(=O)OC32c3ccc(O)cc3Oc3cc(O)ccc32)cc1
- Ki (Cannabinoid receptor 1 [1]): 2110 nM

Compound: Cc1c(C(=O)NN2CCCCC2)nn(-c2ccc(Cl)cc2Cl)c1-c1ccc(C#CCCOC(=O)CCCCCN)cc1
- Ki (Cannabinoid receptor 1 [1]): 1810 nM
- inhibition (Cannabinoid receptor 1 [2]): 59%

Compound: CC(=O)NCCCCCC(=O)NCc1ccc(C(=O)NCCCCCC(=O)NCCCCCC(=O)NCc2ccc(C(=O)NCCCCCC(=O)NCCCCCCNC(=O)c3nn(-c4ccc(Cl)cc4Cl)c(-c4ccc(Cl)cc4)c3C)cc2)cc1
- inhibition (Cannabinoid receptor 1 [2]): 0%

Compound: COC(=O)CCCCCNC(=O)c1ccc(-c2ccc(-c3c(C)c(C(=O)NN4CCCCC4)nn3-c3ccc(Cl)cc3Cl)cc2)cc1
- inhibition (Cannabinoid receptor 1 [2]): 49%

Compound: Cc1c(C(=O)NN2CCCCC2)nn(CCCCCC(=O)NCCCCCC(=O)O)c1-c1ccc(Cl)cc1
- inhibition (Cannabinoid receptor 1 [2]): 13%

Compound: Cc1c(C(=O)NN2CCCCC2)nn(-c2ccc(Cl)cc2Cl)c1-c1ccc(C#CCCOC(=O)CCCCCNC(=S)Nc2ccc3c(c2)C(=O)OC32c3ccc(O)cc3Oc3cc(O)ccc32)cc1
- Ki (Cannabinoid receptor 1 [1]): 260 nM

Compound: Cc1c(C(=O)NN2CCCCC2)nn(CCCCCC(=O)OC(C)(C)C)c1-c1ccc(Cl)cc1
- inhibition (Cannabinoid receptor 1 [2]): 37%

Compound: COC(=O)CCCCCCCCCCNC(=O)c1nn(-c2ccc(Cl)cc2Cl)c(-c2ccc(Cl)cc2)c1C
- inhibition (Cannabinoid receptor 1 [2]): 5%

Compound: CNC(=O)c1ccc(-c2ccc(-c3c(C)c(C(=O)NN4CCCCC4)nn3-c3ccc(Cl)cc3Cl)cc2)cc1
- inhibition (Cannabinoid receptor 1 [2]): 55%

Compound: CCCN(CCc1ccc(NC(=O)CCC(=O)NCCOCCOCC(=O)NCCOCCOCC(=O)NCCCC[C@H](NC(C)=O)C(=O)NCCCC[C@H](NC(C)=O)C(=O)NCCCCCCNC(=O)c2nn(-c3ccc(Cl)cc3Cl)c(-c3ccc(Cl)cc3)c2C)cc1)C1CCc2c(O)cccc2C1 (some centres undefined)
- Ki (D(2) dopamine receptor): 1.1 nM
- inhibition (Cannabinoid receptor 1 [2]): 33%

Compound: CC(=O)N[C@@H](CCCCNC(=O)COCCOCCNC(=O)c1nn(-c2ccc(Cl)cc2Cl)c(-c2ccc(Cl)cc2)c1C)C(=O)NCCCC[C@H](NC(C)=O)C(=O)NCCCCCCNC(=O)c1nn(-c2ccc(Cl)cc2Cl)c(-c2ccc(Cl)cc2)c1C
- inhibition (Cannabinoid receptor 1 [2]): 23%

Compound: COC(=O)c1ccc(-c2ccc(-c3c(C)c(C(=O)NN4CCCCC4)nn3-c3ccc(Cl)cc3Cl)cc2)cc1
- Ki (Cannabinoid receptor 1 [1]): 131 nM

Compound: COC(=O)CCCCCCCCCCNC(=O)CCCCCn1nc(C(=O)NN2CCCCC2)c(C)c1-c1ccc(Cl)cc1
- inhibition (Cannabinoid receptor 1 [2]): 13%

Compound: Cc1c(C(=O)NCCCCCCNC(=O)CCCCCNC(=O)c2ccc(CNC(=O)CCCCCNC(=O)CCCCCNC(=O)c3ccc(CNC(=O)CCCCCNC(=O)c4nn(-c5ccc(Cl)cc5Cl)c(-c5ccc(Cl)cc5)c4C)cc3)cc2)nn(-c2ccc(Cl)cc2Cl)c1-c1ccc(Cl)cc1
- inhibition (Cannabinoid receptor 1 [2]): 0%

Compound: CC(=O)OCCC#Cc1ccc(-c2c(C)c(C(=O)NN3CCCCC3)nn2-c2ccc(Cl)cc2Cl)cc1
- Ki (Cannabinoid receptor 1 [1]): 11 nM
- inhibition (Cannabinoid receptor 1 [2]): 100%

Compound: COC(=O)CCCCCNC(=O)CCCCCn1nc(C(=O)NN2CCCCC2)c(C)c1-c1ccc(Cl)cc1
- inhibition (Cannabinoid receptor 1 [2]): 33%

Compound: CC(=O)NCCCCCC(=O)NCc1ccc(C(=O)NCCCCCC(=O)NCCCCCCNC(=O)c2nn(-c3ccc(Cl)cc3Cl)c(-c3ccc(Cl)cc3)c2C)cc1
- inhibition (Cannabinoid receptor 1 [2]): 23%

Compound: CCCN(CCc1ccc(NC(=O)CCC(=O)NCCOCCOCC(=O)NCCCC[C@H](NC(C)=O)C(=O)NCCCC[C@H](NC(C)=O)C(=O)NCCCCCCNC(=O)c2nn(-c3ccc(Cl)cc3Cl)c(-c3ccc(Cl)cc3)c2C)cc1)C1CCc2c(O)cccc2C1 (some centres undefined)
- Ki (D(2) dopamine receptor): 2.4 nM
- inhibition (Cannabinoid receptor 1 [2]): 44%

Compound: Cc1c(C(=O)NN2CCCCC2)nn(-c2ccc(Cl)cc2Cl)c1-c1ccc(C#CCCOCCCCCC(=O)OC(C)(C)C)cc1
- Ki (Cannabinoid receptor 1 [1]): 45 nM
- inhibition (Cannabinoid receptor 1 [2]): 97%

Compound: COC(=O)CCCCCCCCCCNC(=O)c1ccc(-c2ccc(-c3c(C)c(C(=O)NN4CCCCC4)nn3-c3ccc(Cl)cc3Cl)cc2)cc1
- inhibition (Cannabinoid receptor 1 [2]): 0%

Compound: Cc1c(C(=O)NCCCCCCNC(=O)CCCCCNC(=O)c2ccc(CNC(=O)CCCCCNC(=O)c3nn(-c4ccc(Cl)cc4Cl)c(-c4ccc(Cl)cc4)c3C)cc2)nn(-c2ccc(Cl)cc2Cl)c1-c1ccc(Cl)cc1
- inhibition (Cannabinoid receptor 1 [2]): 29%

Compound: CCCN(CCc1ccc(NC(=O)CCC(=O)NCCCCCC(=O)NCc2ccc(C(=O)NCCCCCC(=O)NCCCCCC(=O)NCc3ccc(C(=O)NCCCCCC(=O)NCCCCCCNC(=O)c4nn(-c5ccc(Cl)cc5Cl)c(-c5ccc(Cl)cc5)c4C)cc3)cc2)cc1)C1CCc2c(O)cccc2C1 (centres undefined)
- Ki (D(2) dopamine receptor): 4.2 nM
- inhibition (Cannabinoid receptor 1 [2]): 0%

Compound: Cc1c(C(=O)NN2CCCCC2)nn(-c2ccc(Cl)cc2Cl)c1-c1ccc(C#CCCOC(=O)CCCCCCCCCCN)cc1
- Ki (Cannabinoid receptor 1 [1]): 97 nM
- inhibition (Cannabinoid receptor 1 [2]): 87%

Compound: CCCN(CCc1ccc(NC(=O)CCC(=O)NCCCC[C@H](NC(C)=O)C(=O)NCCCC[C@H](NC(C)=O)C(=O)NCCCCCCNC(=O)c2nn(-c3ccc(Cl)cc3Cl)c(-c3ccc(Cl)cc3)c2C)cc1)C1CCc2c(O)cccc2C1 (some centres undefined)
- Ki (D(2) dopamine receptor): 0.84 nM
- inhibition (Cannabinoid receptor 1 [2]): 62%

Compound: CCCN(CCc1ccc(NC(=O)CCC(=O)NCCCCCC(=O)NCc2ccc(C(=O)NCCCCCC(=O)NCCCCCCNC(=O)c3nn(-c4ccc(Cl)cc4Cl)c(-c4ccc(Cl)cc4)c3C)cc2)cc1)C1CCc2c(O)cccc2C1 (centres undefined)
- Ki (D(2) dopamine receptor): 2.2 nM
- inhibition (Cannabinoid receptor 1 [2]): 33%

Compound: CC(=O)N[C@@H](CCCCNC(=O)COCCOCCNC(=O)COCCOCCNC(=O)c1nn(-c2ccc(Cl)cc2Cl)c(-c2ccc(Cl)cc2)c1C)C(=O)NCCCC[C@H](NC(C)=O)C(=O)NCCCCCCNC(=O)c1nn(-c2ccc(Cl)cc2Cl)c(-c2ccc(Cl)cc2)c1C
- inhibition (Cannabinoid receptor 1 [2]): 29%

Compound: CC(=O)NCCCC[C@H](NC(C)=O)C(=O)NCCCC[C@H](NC(C)=O)C(=O)NCCCCCCNC(=O)c1nn(-c2ccc(Cl)cc2Cl)c(-c2ccc(Cl)cc2)c1C
- inhibition (Cannabinoid receptor 1 [2]): 41%

Compound: Cc1c(C(=O)NN2CCCCC2)nn(-c2ccc(Cl)cc2Cl)c1-c1ccc(C#CCCO)cc1
- Ki (Cannabinoid receptor 1 [1]): 180 nM
- inhibition (Cannabinoid receptor 1 [2]): 98%

Compound: COC(=O)CCCCCNC(=O)c1nn(-c2ccc(Cl)cc2Cl)c(-c2ccc(Cl)cc2)c1C
- Ki (Cannabinoid receptor 1 [1]): 13 nM

Compound: Cc1c(C(=O)NCCCCCCCCCCC(=O)O)nn(-c2ccc(Cl)cc2Cl)c1-c1ccc(Cl)cc1
- inhibition (Cannabinoid receptor 1 [2]): 43%

Compound: CC(=O)N[C@@H](CCCCNC(=O)c1nn(-c2ccc(Cl)cc2Cl)c(-c2ccc(Cl)cc2)c1C)C(=O)NCCCC[C@H](NC(C)=O)C(=O)NCCCCCCNC(=O)c1nn(-c2ccc(Cl)cc2Cl)c(-c2ccc(Cl)cc2)c1C
- inhibition (Cannabinoid receptor 1 [2]): 11%

Compound: Cc1c(C(=O)NN2CCCCC2)nn(-c2ccc(Cl)cc2Cl)c1-c1ccc(C#CCCOC(=O)CCCCCNC(=O)OC(C)(C)C)cc1
- Ki (Cannabinoid receptor 1 [1]): 106 nM
- inhibition (Cannabinoid receptor 1 [2]): 79%

Compound: CNC(=O)CCCCCn1nc(C(=O)NN2CCCCC2)c(C)c1-c1ccc(Cl)cc1
- inhibition (Cannabinoid receptor 1 [2]): 3%

Compound: Cc1c(C(=O)NN2CCCCC2)nn(-c2ccc(Cl)cc2Cl)c1-c1ccc(-c2ccc(C(=O)O)cc2)cc1
- inhibition (Cannabinoid receptor 1 [2]): 66%

Compound: Cc1c(C(=O)NN2CCCCC2)nn(CCCCCC(=O)O)c1-c1ccc(Cl)cc1
- inhibition (Cannabinoid receptor 1 [2]): 10%

Compound: CC(=O)NCCOCCOCC(=O)NCCCC[C@H](NC(C)=O)C(=O)NCCCC[C@H](NC(C)=O)C(=O)NCCCCCCNC(=O)c1nn(-c2ccc(Cl)cc2Cl)c(-c2ccc(Cl)cc2)c1C
- inhibition (Cannabinoid receptor 1 [2]): 37%

Compound: CCOC(=O)c1ccc(CNC(=O)c2nn(-c3ccc(Cl)cc3Cl)c(-c3ccc(Cl)cc3)c2C)cc1
- Ki (Cannabinoid receptor 1 [1]): 8.2 nM

Compound: CC(=O)NCCOCCOCC(=O)NCCOCCOCC(=O)NCCCC[C@H](NC(C)=O)C(=O)NCCCC[C@H](NC(C)=O)C(=O)NCCCCCCNC(=O)c1nn(-c2ccc(Cl)cc2Cl)c(-c2ccc(Cl)cc2)c1C
- inhibition (Cannabinoid receptor 1 [2]): 23%

— ChEMBL document CHEMBL4364348, “Divalent cannabinoid-1 receptor ligands: A linker attachment point survey of SR141716A for development of high-affinity CB1R molecular probes” (Bioorg Med Chem Lett, 2019)
